Data from patent publication US12213979B2, “Biomarkers of methotrexate-induced immune tolerance” (Genzyme Corporation, priority 2017, dated 2025).

Columns and labels:
[1] = tested on: total RBCs (Ter-119+) and immature, nucleated RBCs (Ter-119+CD71+); experiment: Flow cytometry of erythroid cells in blood; assay type: in vivo, mice
Experimental: (§1) C57BL/6 (Jackson Laboratory) or C57BL/6NTac (Taconic Biosciences, Inc.) female mice between S and 12 weeks of age were housed and maintained in accordance with the Guide for the Care and Use of Laboratory Animals, under the American Association for Accreditation of Laboratory Animal Care. The Institutional Animal Care and Use Committee approved all animal procedures. […] Subsequent weekly doses of rhGAA (up to 16 weeks) were given 15 minutes after prophylactic intraperitoneal administration of 30 mg/kg diphenhydramine (West-ward Pharmaceutical). The vehicle control or formulation buffer (FB) for rhGAA. was administered similarly to reconstituted rhGAA. Blood was collected by retro-orbital Heeds from anesthetized mice or by terminal bleeds into EDTA anticoagulant Capiject micro collection tubes (Terumo) on wet ice. Spleens were prepared into single-cell suspension between glass slides with or without RBC lysis. Bone marrow was collected from a single femur on wet ice.
(§2) Anti-mouse antibodies used for flow cytometry include BioLegend antibodies PE-Ter-119 (catalog 116208), PerCP-Cy5.5-CD71 (catalog 113816), PE-Cy7-IgM (catalog 406516), Pacific Blue (PB)-CD86 (catalog 105022) and allophycocyanin-CD45 (catalog 103116). Antibodies from BD Biosciences include FITC-CD44 (catalog 553133), allophycocyanin-CD3 (catalog 550035), allophycocyanin-CD19 or allophycocyanin-Cy7-CD19 (catalog 557655 and 550992), FITC-CD1d (catalog 553843), FITC-CD23 (catalog 553138) and allophycocyanin-Cy7-CD3, (catalog 557596). Live/dead discrimination was determined by staining with BioLegend Zombie Aqua Fixable Visability Kit. Samples were run on a BD FACS Canto II (BD Biosciences) and acquired with BD FACSDiva software. Cytometry data was analyzed on Floyd( )software version 10 (FlowJo, LLC). Absolute numbers of cell population were calculated from CountBright Absolute Counting Beads (ThermoFisher Scientific). Cell types assessed include total RBCs (Ter-119^+), immature, nucleated RBCs (Ter-119^+, CD71^+), mature RBCs (Ter-119^+, […]), proerythrohlasts (Ter-119^intermediate, CD44^high), basophilic erythroblasts (Ter-119^+, CD44^highFSC^high), polychromatic erythroblasts (Ter-119^+, CD44^intermediateFSC^intermediate), orthochromatic erythroblasts and reticulocytes (Ter-119^+, CD44^intermediateFSC^low), mature red blood cells (Ter-119^+, CD44^lowFSC^low), total activated B cells (CD19^+CD86^+), activated follicular B cells (CD19^+, IgM^low/high CD23^+, CD86^+), activated marginal zone B cells (CD19^+, IgM^high CD23^−, CD86^+), and B10 regulatory B cells (CD19^+, CD1d^highCD5^+) (Allman et. al., 2004: Chen et. al., 2009; Koulnis et. al., 2011; Joly et. al., 2014).

[2] = tested on: erythroid ankyrin and glycophorin C; experiment: Tissue mass spectrometry imaging (tMSI) of spleen; assay type: in vivo, mice; details: 7 days after rhGAA initiation, methotrexate given together with rhGAA or FB
Experimental: Fresh spleen samples for tMSI were collected in 10% gelatin (Alfa Aesar catalog J62699), frozen en bloc, cut into […] sections, and deposited on indium tin oxide ([…]) glass slides. ITO glass slides were coated with matrix-assisted laser desorption/ionization (MALDI) matrix (α-cyano-4-hydroxycinnamic acid) for tMSI. Mass spectrometry imaging was performed with AB Sciex 4800 MALDI-TOF/TOF, Autoflex MALDI-TOF/TOF and 7T SolariX MALDI-FTICR mass spectrometers. The imaging data sets were analyzed with TissueView, flexlmaging, or Multimaging 1.1 (ImaBiotech).

[3] = tested on: total RBCs (Ter-119+) and immature, nucleated RBCs (Ter-119+CD71+); experiment: Flow cytometry of erythroid cells in spleen; assay type: in vivo, mice
Experimental: as §1, §2

[4] = tested on: anti-rhGAA IgG antibody; experiment: Serum anti-rhGAA antibody titers by ELISA, dosed control mice; assay type: in vivo; details: high outlier not removed (data not shown)
Experimental: as §1
Quantitation of anti-rhGAA antibody titers from mouse serum was measured by ELBA as previously described (holy, Martin et. al. 2014). […] The reaction was stopped by addition of 1 N HCl and absorbance was immediately measured at 450/650 nm on a SpectraMax M2 (Molecular Devices). End-point titers were derived from the reciprocal of the sample dilution resulting in an absorbance value of 0.2.

[5] = tested on: anti-rhGAA IgG antibody; details: historical data; rhGAA with transient low-dose methotrexate ITI regimen vs rhGAA alone; cited from earlier work
[6] = tested on: total RBCs (Ter-119+) and immature, nucleated RBCs (Ter-119+CD71+); experiment: Flow cytometry of erythroid cells in bone marrow; assay type: in vivo, mice
Experimental: as §1, §2

[7] = tested on: proteins of erythropoiesis related pathways (transferrin receptor 1, transferrin); experiment: LC/MS protein mass spectrometry of spleen of treated mice; assay type: in vivo; details: day 7, rhGAA with vs without transient low-dose methotrexate
Experimental: as §1, with “Spleens were prepared into single-cell suspension between glass slides with or without RBC lysis. Bone marrow was collected from a single femur on wet ice.” left out
Blood was collected by terminal retro-orbital bleeds as described above followed by separation of plasma and PBC by centrifugation. […] Data was analyzed by Progenesis QI for Proteomics (Nonlinear Dynamics) for peak detection. […] Protein quantitation was performed through Progenesis QI for Proteomics. Fold change and p-values were calculated from the average normalized protein abundance data for each experimental group. […] Data were analyzed for enrichment scores in GO processes and other biological categories in MetaCore (Thomson Reuters).

[8] = tested on: genes associated with erythropoiesis; experiment: RNA-sequencing of spleen and PBMC's of treated mice; assay type: in vivo; details: for transcriptional signatures of erythropoiesis: day 7 after rhGAA initiation, rhGAA in conjunction with low-dose methotrexate
Experimental: Animals were sacrificed on day 7 after rhGAA initiation. Blood was collected by terminal retro-orbital bleeds as described above. Whole blood diluted 1 part in 2 with PBS was layered over Ficoll for the separation of peripheral blood mononuclear cells (PBMC's). Spleens were prepared into single-cell suspension between glass slides. Samples were treated for RBC lysis (BD Pharm Lyse). […] The RNA integrity number (RIN) was evaluated. on an Agilent 2100 bioanalyzer with the RNA 6000 nano kit (Agilent) or RNA 6000 pica kit (Agilent). RNA amplification was performed with the SMARTER™ PCR cDNA Synthesis Kit (Clonetech). Detection of sequencing fragments was performed on the Illumina HiSeq2000 with Illumina sequencing kits. RNA-seq data sets were filtered to remove adaptors and low-quality, reads and assessed for differential expression with a fold change of 2 and p value≤0.05. Differentially expressed genes were annotated and examined through NextBio biological data mining software (Illumina).

[9] = Spleen weight and spleen cellularity; assay type: in vivo, mice; details: day 7; rhGAA concurrent with a single cycle of low-dose methotrexate vs rhGAA alone
Experimental: as §1, with “Spleens were prepared into single-cell suspension between glass slides with or without RBC lysis. Bone marrow was collected from a single femur on wet ice.” left out
Anti-mouse antibodies used for flow cytometry include BioLegend antibodies PE-Ter-119 (catalog 116208), PerCP-Cy5.5-CD71 (catalog 113816), PE-Cy7-IgM (catalog 406516), Pacific Blue (PB)-CD86 (catalog 105022) and allophycocyanin-CD45 (catalog 103116). […] Live/dead discrimination was determined by staining with BioLegend Zombie Aqua Fixable Visability Kit. […] Cytometry data was analyzed on Floyd( )software version 10 (FlowJo, LLC). Absolute numbers of cell population were calculated from CountBright Absolute Counting Beads (ThermoFisher Scientific). […]

[10] = Hematology: CBC and reticulocyte count on Sysmex XT2000iV; assay type: in vivo, mice; details: blood; 7 days after rhGAA initiation; groups with transient low-dose methotrexate (rhGAA or FB)
Experimental: as §1
Samples were collected by retro-orbital bleed into EDTA anticoagulant Capiject micro collection tubes as described above and stored at 2-8° C. for no longer than 72 hours. CBC, WBC differential analysis and reticulocyte count were performed on Sysmex XT2000iV (Sysmex). Histology, immunohistochemistry (IHC)

[11] = day 2, CD44/FSC gating, with rhGAA vs rhGAA alone
[12] = day 2, with rhGAA vs rhGAA alone
[13] = day 4, with rhGAA vs rhGAA alone
[14] = day 7, CD44/FSC gating, with rhGAA vs rhGAA alone
[15] = day 7, with rhGAA vs rhGAA alone
[16] = day 9, with rhGAA vs rhGAA alone
[17] = day 4, CD44/FSC gating, with rhGAA vs rhGAA alone
[18] = day 5, with rhGAA vs rhGAA alone
[19] = day 7 and 9, with rhGAA vs rhGAA alone
[20] = day 9, CD44/FSC gating, with rhGAA vs rhGAA alone

CN(Cc1cnc2nc(N)nc(N)c2n1)c1ccc(C(=O)N[C@@H](CCC(=O)O)C(=O)O)cc1 [methotrexate]
basophilic erythroblasts, orthochromatic erythroblasts, reticulocytes and mature red blood cells [1, 11]: small but significant reduction | immature, nucleated RBCs [1, 12]: significant depletion | total RBCs [1, 12]: significant depletion | immature, nucleated RBCs [1, 13]: nearly absent | immature, nucleated RBCs [1, 14]: no changes | mature RBCs [1, 14]: significant reduction | total RBCs [1, 15]: significantly reduced | immature, nucleated RBCs ([1]; day 7, with rhGAA vs rhGAA alone, Ter-119/CD71 gating): significantly enriched | immature, nucleated RBCs [1, 16]: significantly enriched | total RBCs [1, 16]: significantly enriched | immature, nucleated RBCs ([1]; day 14, with rhGAA vs rhGAA alone): small but significant enrichment | enrichment of immature, nucleated RBCs ([1]; day 28, with rhGAA vs rhGAA alone): absent | total RBCs ([1]; methotrexate alone vs vehicle control): no observed differences | erythroid ankyrin signal in 10 μM spleen sections [2]: diminished | glycophorin C signal in 10 μM spleen sections [2]: diminished | day of peak enrichment of immature, nucleated RBCs [3]: 7 days | time to significant reduction in immature, nucleated RBCs and mature RBCs ([3]; after the first administration of low-dose methotrexate): ≤ 24 h | all stages of early erythroid cells (proerythroblasts, basophilic, polychromatic, orthochromatic erythroblasts and reticulocytes) [3, 11]: significantly diminished | mature RBCs [3, 11]: significantly reduced | immature, nucleated RBCs (Ter-119+CD71+) [3, 12]: nearly complete reduction | total erythroid cells (Ter-119+) [3, 12]: significant reduction | erythroid cells, difference between groups ([3]; day 6, with rhGAA vs rhGAA alone): No differences | mature RBCs [3, 14]: no differences | proerythroblasts, basophilic, polychromatic and orthochromatic erythroblasts and reticulocytes [3, 14]: significant enrichment | immature, nucleated RBCs (Ter-119+CD71+) [3, 15]: significant expansion | total erythroid cells (Ter-119+) [3, 15]: large and significant enrichment | immature, nucleated RBCs (Ter-119+CD71+) [3, 16]: smaller but significant enrichment | total erythroid cells (Ter-119+) [3, 16]: smaller but significant enrichment | erythroid response ([3]; transient low-dose methotrexate alone (with FB)): mimicked that of the group treated with transient low-dose methotrexate together with rhGAA | rhGAA titers and AUC, difference between dosed control groups [4]: no differences | rhGAA titers and AUC [5]: significantly reduced | all stages of early erythroid cells [6, 17]: significant depletion | mature RBCs [6, 17]: no statistically significant differences | immature, nucleated RBCs [6, 13]: significantly reduced | total RBCs [6, 13]: no Differences | all erythroid cell stages, including early and mature RBCs ([6]; day 5, CD44/FSC gating, with rhGAA vs rhGAA alone): Depletion | immature, nucleated RBCs [6, 18]: significantly reduced | total RBCs [6, 18]: significantly reduced | mature RBCs [6, 14]: significantly reduced | proerythroblasts and polychromatic erythroblasts [6, 14]: small but significant enrichment | immature, nucleated RBCs [6, 19]: no differences | total RBCs [6, 19]: no differences | mature RBCs [6, 20]: no differences | proerythroblasts and polychromatic erythroblasts [6, 20]: small but significant enrichment | transferrin protein level [7]: upregulation | transferrin receptor 1 protein level [7]: upregulation | transcriptional signatures of erythropoiesis ([8]; PBMC's): upregulation of transcriptional signatures of erythropoiesis | TfR1 in the transcriptional data set ([8]; day 7, rhGAA and low-dose methotrexate vs rhGAA alone): upregulation | transcriptional signatures of erythropoiesis ([8]; spleen): upregulation of transcriptional signatures of erythropoiesis | spleen cellularity by flow cytometry [9]: significantly greater | spleen weight [9]: significantly enlarged | Hemoglobin content [10]: significantly reduced | Total RBC numbers (CBC) [10]: significantly reduced | frequency and numbers of mature reticulocytes [10]: no observed differences | frequency of the immature reticulocyte fraction (IRF) [10]: significantly enriched | hematocrit [10]: significantly reduced

rhGAA: recombinant human acid-α-glucosidase, enzyme replacement therapy used to treat Pompe disease
erythroid ankyrin signal in 10 μM spleen sections [2]: evenly distributed across the spleen | glycophorin C signal in 10 μM spleen sections [2]: evenly distributed across the spleen
